Measured values reported in PubChem BioAssay AID212 (DTP/NCI, 2004).
Where “and” joins values, the source holds several entries; their conditions need not be identical. Equal entries are not always repeated. Inconclusive results are not listed. *1 amine or outer side, *2 acyl side, *3 side chain or, on linkers, in order; H or OH if unused. Where a SMILES comes first, the peptide text is derived from it. Bridges are numbered along the chain shown (N, C = ends). Roman numbers before positions name the chains, in order. [ ]: non-standard residue; d: D form. Actinocin(1to9) = Cc1c2oc3c(C)ccc(C(=O)[*:2])c3nc-2c(C(=O)[*:1])c(N)c1=O; NMeV = CN[CH](C(=O)O)C(C)C; Aze = O=C(O)[CH]1CCN1; Sar = CNCC(=O)O

Tested on: BDF1 mice, colon carcinoma 38 sc, T/C %
Assay: NCI In Vivo Anticancer Drug Screen. Data for tumor model Colon Carcinoma 38 (subcutaneous) in B6D2F1 (BDF1) mice
Settings: higher = larger tumour
Outline: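 Mice with transplanted tumors are treated with compound or vehicle. Survival or tumor size is then measured in both groups. The ratio of treated to control gives the reported figure.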

[1] = endpoint: median tumor weight (est.), dose: 12.5 mg/kg/injection, schedule: Q07DX002 (ip), vehicle: saline
[2] = endpoint: median tumor weight (est.), dose: 12.5 mg/kg/injection, schedule: Q07DX002 (ip), vehicle: suspension in saline
[3] = endpoint: median tumor weight (est.), dose: 25.0 mg/kg/injection, schedule: Q07DX002 (ip), vehicle: saline
[4] = endpoint: median tumor weight (est.), dose: 25.0 mg/kg/injection, schedule: Q07DX002 (ip), vehicle: suspension in saline
[5] = endpoint: median tumor weight (est.), dose: 50.0 mg/kg/injection, schedule: Q07DX002 (ip), vehicle: saline
[6] = endpoint: median tumor weight (est.), dose: 100.0 mg/kg/injection, schedule: Q07DX002 (ip), vehicle: saline
[7] = endpoint: median tumor weight (est.), dose: 100.0 mg/kg/injection, schedule: Q07DX002 (ip), vehicle: suspension in saline
[8] = endpoint: median tumor weight (est.), dose: 200.0 mg/kg/injection, schedule: Q07DX002 (ip), vehicle: saline
[9] = endpoint: median tumor weight (est.), dose: 400.0 mg/kg/injection, schedule: Q07DX002 (ip), vehicle: saline
[10] = endpoint: median tumor weight (est.), dose: 800.0 mg/kg/injection, schedule: Q07DX002 (ip), vehicle: saline
[11] = endpoint: median tumor weight (est.), dose: 200.0 mg/kg/injection, schedule: Q07DX002 (ip), vehicle: suspension in saline
[12] = endpoint: median tumor weight (est.), dose: 400.0 mg/kg/injection, schedule: Q07DX002 (ip), vehicle: suspension in saline

Structure (SMILES): Cc1c2oc3c(C)ccc(C(=O)NC4C(=O)NC(C(C)C)C(=O)N5CCCC5C(=O)N(C)CC(=O)N(C)C(C(C)C)C(=O)OC4C)c3nc-2c(C(=O)NC2C(=O)NC(C(C)C)C(=O)N3CCC3C(=O)N(C)CC(=O)N(C)C(C(C)C)C(=O)OC2C)c(N)c1=O (centres undefined) (I: TV[Aze][Sar][NMeV] / II: TVP[Sar][NMeV]; ester I:1-I:C, II:1-II:C; linker I:N-II:N via Actinocin(1to9); configuration not given here)
- T/C (endpoint: median tumor weight (est.), dose: 25.0 micrograms/kg/injection, schedule: Q07DX002 (ip), vehicle: saline): 165 % of control
- T/C (endpoint: median tumor weight (est.), dose: 37.5 micrograms/kg/injection, schedule: Q07DX002 (ip), vehicle: saline + alcohol): 124 % of control
- T/C (endpoint: median tumor weight (est.), dose: 50.0 micrograms/kg/injection, schedule: Q07DX002 (ip), vehicle: saline): 80 % of control
- T/C (endpoint: median tumor weight (est.), dose: 200.0 micrograms/kg/injection, schedule: Q07DX002 (ip), vehicle: saline): 93 % of control
- T/C (endpoint: median tumor weight (est.), dose: 400.0 micrograms/kg/injection, schedule: Q07DX002 (ip), vehicle: saline): 51 % of control
- T/C (endpoint: median tumor weight (est.), dose: 600.0 micrograms/kg/injection, schedule: Q07DX002 (ip), vehicle: saline + alcohol): 48 % of control and 50 % of control and 73 % of control
- T/C (endpoint: median tumor weight (est.), dose: 800.0 micrograms/kg/injection, schedule: Q07DX002 (ip), vehicle: saline): 21 % of control

Structure (SMILES): COC1CC(NC(=O)N(CCCl)N=O)C(O)C(CO)O1 (centres undefined)
- T/C (endpoint: median tumor weight change, dose: 10.0 mg/kg/injection, schedule: Q04DX003 (oral), vehicle: saline): 5 % of control

Structure (SMILES): O=C(/C=C(\Cl)C(=O)NO)NO
- T/C [1]: 154 % of control
- T/C [2]: 82 % of control
- T/C [3]: 159 % of control
- T/C [4]: 101 % of control
- T/C [5]: 175 % of control
- T/C [6]: 119 % of control
- T/C [7]: 94 % of control

Structure (SMILES): C[C@@H](CN1CC(=O)NC(=O)C1)N1CC(=O)NC(=O)C1
- T/C [3]: 87 % of control
- T/C [5]: 95 % of control
- T/C [6]: 97 % of control
- T/C (endpoint: median tumor weight (est.), dose: 100.0 mg/kg/injection, schedule: Q07DX003 (ip), vehicle: saline): 71 % of control
- T/C [8]: 110 % of control
- T/C (endpoint: median tumor weight (est.), dose: 200.0 mg/kg/injection, schedule: Q07DX003 (ip), vehicle: saline): 71 % of control
- T/C [9]: 93 % of control
- T/C (endpoint: median tumor weight (est.), dose: 400.0 mg/kg/injection, schedule: Q07DX003 (ip), vehicle: saline): 71 % of control
- T/C [10]: 66 % of control
- T/C (endpoint: median tumor weight (est.), dose: 800.0 mg/kg/injection, schedule: Q07DX003 (ip), vehicle: saline): 38 % of control

Structure (SMILES): O=c1[nH]c(=O)n(C2CC(O)C(CO)O2)cc1I (centres undefined)
- T/C (endpoint: median tumor weight (est.), dose: 50.0 mg/kg/injection, schedule: Q07DX002 (ip), vehicle: saline with Tween-80): 79 % of control
- T/C [5]: 44 % of control
- T/C (endpoint: median tumor weight (est.), dose: 100.0 mg/kg/injection, schedule: Q07DX002 (ip), vehicle: saline with Tween-80): 69 % of control
- T/C [6]: 50 % of control
- T/C (endpoint: median tumor weight (est.), dose: 200.0 mg/kg/injection, schedule: Q07DX002 (ip), vehicle: saline with Tween-80): 102 % of control
- T/C [8]: 44 % of control
- T/C [11]: 57 % of control
- T/C (endpoint: median tumor weight (est.), dose: 400.0 mg/kg/injection, schedule: Q07DX002 (ip), vehicle: saline with Tween-80): 105 % of control
- T/C [9]: 44 % of control
- T/C [12]: 102 % of control
- T/C (endpoint: median tumor weight (est.), dose: 800.0 mg/kg/injection, schedule: Q07DX002 (ip), vehicle: saline with Tween-80): 75 % of control
- T/C [10]: 18 % of control
- T/C (endpoint: median tumor weight (est.), dose: 800.0 mg/kg/injection, schedule: Q07DX002 (ip), vehicle: suspension in saline): 59 % of control
- T/C (endpoint: median tumor weight (est.), dose: 1600.0 mg/kg/injection, schedule: Q07DX002 (ip), vehicle: saline with Tween-80): 48 % of control
- T/C (endpoint: median tumor weight (est.), dose: 1600.0 mg/kg/injection, schedule: Q07DX002 (ip), vehicle: saline): 1 % of control

Structure (SMILES): C=C(NC(=O)C(=C)NC(=O)c1csc(C2=NC3c4csc(n4)C4NC(=O)c5csc(n5)C(C(C)(O)C(C)O)NC(=O)C5CSC(=N5)/C(=C/C)NC(=O)C(C(C)O)NC(=O)c5csc(n5)C3(CC2)NC(=O)C(C)NC(=O)C(=C)NC(=O)C(=C)NC(=O)C(C(C)C)NC2C=Cc3c(C(C)O)cc(nc3C2O)C(=O)OC4C)n1)C(N)=O (centres undefined)
- T/C [2]: 95 % of control
- T/C [4]: 98 % of control
- T/C (endpoint: median tumor weight (est.), dose: 50.0 mg/kg/injection, schedule: Q07DX002 (ip), vehicle: suspension in saline): 111 % of control
- T/C [7]: 72 % of control
- T/C [11]: 75 % of control
- T/C [12]: 86 % of control

Structure (SMILES): CC1=C(O)C(=O)[C@@H]2O[C@@H]2C1=O
- T/C (endpoint: median tumor weight (est.), dose: 3.12 mg/kg/injection, schedule: Q07DX002 (ip), vehicle: saline): 90 % of control
- T/C (endpoint: median tumor weight (est.), dose: 6.25 mg/kg/injection, schedule: Q07DX002 (ip), vehicle: saline): 106 % of control
- T/C [1]: 71 % of control
